The term IC50 denotes the point on the concentration scale where inhibition reaches its midpoint. Usually AC50 stands for the concentration at which the activity in the assay is half-maximal.

SMILES strings stand for the structures. Calls of active or inactive are those of the source. Some results are limits rather than exact numbers.

The record followed here is ChEMBL document CHEMBL1201862, “PubChem BioAssay data set” (2004).

The target in test [1] is Phospholipase D1 (Homo sapiens, UniProt Q13393). Nature of the test: PLD1 purified enzyme concentration response. [Related pubchem assays (depositor defined):AID588854]. Type of test: functional.
Test [2] addresses T1, Phospholipase D2 (Homo sapiens, UniProt O14939). The test is described as follows: PLD2 inhibitor potency in cells, dose response (AID 602147).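 Note: cellular assay in HEK293 cells overexpressing GFP-tagged PLD2.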 Type of test: functional.
Test [3] deals with T1, Phospholipase D2. The test is described as follows: PLD2 purified enzyme concentration response. [Related pubchem assays (depositor defined):AID588854]. It is filed as functional.
Test [4] deals with INS1. The test is described as follows: protection of INS-1E cells from cytokine death, dose response, ATP luminescence, dry powder (AID 488844). Type of test: functional, cell-based. The following applies: Rattus norvegicus.
The subject of test [5] is INS1. The test is described as follows: inhibitors of cytokine-induced nitrite release, dose response, cell-based, Griess absorbance, INS-1E, dry powder (AID 488866). As to conditions: Rattus norvegicus. It is filed as functional. In general terms: Nitrite, measured by Griess reagent, commonly stands in for NO production.
A short description of test [6]: inhibitors of cytokine-induced nitrite release, dose response, cell-based, Griess absorbance, INS-1E, dry powder, set 3 (AID 488870). It is filed as functional. As to conditions: Rattus norvegicus.
For test [7], the system named is INS1. The test is described as follows: inhibitors of cytokine-induced nitrite release, dose response, cell-based, Griess absorbance, INS-1E, dry powder, set 2 (AID 488868). It is filed as functional. The following applies: Rattus norvegicus.
For test [8], the target named is Sphingosine 1-phosphate receptor 1 (Homo sapiens, UniProt P21453). The test is described as follows: Late-stage fluorescence-based dose-response cell-based counterscreen assay to identify agonists of the Sphingosine 1-Phosphate Receptor 4 (S1P4): Sphingosine 1-Phosphate Receptor 1 (S1P1) agonist assay Set 2. Type of test: functional. In general terms: A counterscreen serves to expose hits that act by an unwanted route or on another target.

The target in test [9] is Sphingosine 1-phosphate receptor 5 (Homo sapiens, UniProt Q9H228). Nature of the test: S1P5 receptor agonists, human, late-stage follow-up, counter-screen for S1P4 agonist project, cell-based, fluorescence, set 2 (AID 504867). It is filed as functional.
Test [10] has as its target Sphingosine 1-phosphate receptor 3 (Homo sapiens, UniProt Q99500). Nature of the test: Late-stage fluorescence-based dose-response cell-based counterscreen assay to identify agonists of the Sphingosine 1-Phosphate Receptor 4 (S1P4): Sphingosine 1-Phosphate Receptor 3 (S1P3) agonist assay Set 2. Type of test: functional.
Test [11] concerns the target Heat shock protein HSP 90-alpha (Homo sapiens, UniProt P07900). It is filed as functional, organism-based.
Test [12] addresses T2, V-type proton ATPase subunit c' (Saccharomyces cerevisiae S288c, UniProt P32842). The test is described as follows: Dose Response of Small Molecules that Regulate V-ATPase Proton Transport in Yeast using pHLuorin, Powder Set1. It is filed as functional. The following applies: read-out: EC50_MICROM.
Test [13] deals with T2, V-type proton ATPase subunit c'. The test is described as follows: Dose Response of Small Molecules that Regulate V-ATPase Proton Transport in Yeast using pHLuorin, Cherry Pick 2. It is filed as functional. As to conditions: read-out: EC50_MICROM.
Test [14] concerns the target T3, Microphthalmia-associated transcription factor (Homo sapiens, UniProt O75030).
T3 sequence (O75030 whole entry): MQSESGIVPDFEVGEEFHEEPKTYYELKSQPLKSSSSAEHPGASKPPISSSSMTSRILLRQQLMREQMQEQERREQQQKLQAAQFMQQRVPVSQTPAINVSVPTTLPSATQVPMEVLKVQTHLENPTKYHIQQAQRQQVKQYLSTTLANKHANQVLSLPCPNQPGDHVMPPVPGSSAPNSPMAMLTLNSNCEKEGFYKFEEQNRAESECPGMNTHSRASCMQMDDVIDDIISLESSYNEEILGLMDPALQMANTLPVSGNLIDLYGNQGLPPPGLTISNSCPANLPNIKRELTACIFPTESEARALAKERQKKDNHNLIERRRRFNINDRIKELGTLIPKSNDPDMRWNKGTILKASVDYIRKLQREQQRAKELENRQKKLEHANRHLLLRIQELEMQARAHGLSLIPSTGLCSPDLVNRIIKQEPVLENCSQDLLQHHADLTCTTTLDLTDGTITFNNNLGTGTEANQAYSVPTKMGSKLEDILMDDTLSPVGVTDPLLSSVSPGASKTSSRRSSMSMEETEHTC
The test is described as follows: TRPM1 promoter luciferase signal decrease, dose response, MITF inhibitor project, cell-based, SK-MEL-5, cherry-picked, set 3 (AID 493073).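 Note: SK-MEL-5 melanoma cells with luciferase driven by the MITF target TRPM1 promoter.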 It is filed as functional.

The nature of test [15]: cytotoxicity toward HCT116 cells – cell-based, CellTiter-Glo luminescence, IC50, dose response (AID 1117332). Type of test: functional. The following applies: HCT-116.
A short description of test [16]: SNU-C1 cell viability reduction, dose response, CellTiter-Glo luminescence (AID 1117323). It is filed as functional, cell-based. (In general: ATP-based viability assays read luminescence as a measure of living cells.)
A short description of test [17]: cytotoxicity toward HT-29 cells – cell-based, CellTiter-Glo luminescence, IC50, dose response (AID 1117330). Type of test: functional.
The subject of test [18] is HEK293. The test is described as follows: cells. Type of test: functional, cell-based. As to conditions: Homo sapiens.
A short description of test [19]: cells. Type of test: functional, cell-based.
The nature of test [20]: cytotoxicity toward Colo320 cells – cell-based, CellTiter-Glo luminescence, IC50, dose response (AID 1117334). Type of test: functional. As to conditions: COLO 320.
Test [21] is described as follows: CellTiter-Glo luminescent dose response of DLD-1 viability loss (AID 1117352). It is filed as functional.
The nature of test [22]: cells. It is filed as functional, cell-based. The source holds these as a separate data set.
A short description of test [23]: HCT116 cell viability decrease, GSK3B pretreatment – CellTiter-Glo, IC50, dose response (AID 1117339). Type of test: functional. The following applies: HCT-116.
The nature of test [24]: Concentration-dependent survival of SW480 colon cancer line, luminescence detection with CellTiter-Glo, half-maximal inhibitory concentration (AID 1117338). Type of test: functional.
Test [25] has as its target T4, Oxysterols receptor LXR-beta (Homo sapiens, UniProt P55055).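 Note: agonist activity at LXR measured by a cell-based luminescence readout across a dose range, run as a counterscreen for daf-12 agonists; HEK293 cells with Gal4-LXR fusion and GAL4-driven luciferase reporter; potency for activation of Gal4-LXR reporter so compounds are agonists.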
T4 sequence (P55055 whole entry): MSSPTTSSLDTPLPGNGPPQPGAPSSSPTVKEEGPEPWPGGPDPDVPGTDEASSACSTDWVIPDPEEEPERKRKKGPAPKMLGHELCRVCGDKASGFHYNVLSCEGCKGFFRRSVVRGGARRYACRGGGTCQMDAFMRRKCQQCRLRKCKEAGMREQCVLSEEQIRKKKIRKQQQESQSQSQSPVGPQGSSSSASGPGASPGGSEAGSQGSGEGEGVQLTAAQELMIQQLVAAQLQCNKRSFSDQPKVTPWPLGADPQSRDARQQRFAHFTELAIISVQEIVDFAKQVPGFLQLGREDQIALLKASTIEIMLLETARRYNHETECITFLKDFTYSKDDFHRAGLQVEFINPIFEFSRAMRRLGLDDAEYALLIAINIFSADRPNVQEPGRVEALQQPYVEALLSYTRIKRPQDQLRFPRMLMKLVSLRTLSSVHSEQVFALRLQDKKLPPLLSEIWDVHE
It is filed as functional, cell-based.

Test [26] deals with Nuclear receptor subfamily 0 group B member 1 (Homo sapiens, UniProt P51843). The test is described as follows: Luminescence-based cell-based high throughput dose response assay for inhibitors of the orphan nuclear receptor subfamily 0, group B, member 1 (DAX1; NR0B1). [Related pubchem assays (depositor defined):AID504766, AID504790]. It is filed as functional.
The nature of test [27]: RKO cell viability reduction, dose response, CellTiter-Glo luminescence (AID 1117322). Type of test: functional.

T1 sequence (O14939 whole entry): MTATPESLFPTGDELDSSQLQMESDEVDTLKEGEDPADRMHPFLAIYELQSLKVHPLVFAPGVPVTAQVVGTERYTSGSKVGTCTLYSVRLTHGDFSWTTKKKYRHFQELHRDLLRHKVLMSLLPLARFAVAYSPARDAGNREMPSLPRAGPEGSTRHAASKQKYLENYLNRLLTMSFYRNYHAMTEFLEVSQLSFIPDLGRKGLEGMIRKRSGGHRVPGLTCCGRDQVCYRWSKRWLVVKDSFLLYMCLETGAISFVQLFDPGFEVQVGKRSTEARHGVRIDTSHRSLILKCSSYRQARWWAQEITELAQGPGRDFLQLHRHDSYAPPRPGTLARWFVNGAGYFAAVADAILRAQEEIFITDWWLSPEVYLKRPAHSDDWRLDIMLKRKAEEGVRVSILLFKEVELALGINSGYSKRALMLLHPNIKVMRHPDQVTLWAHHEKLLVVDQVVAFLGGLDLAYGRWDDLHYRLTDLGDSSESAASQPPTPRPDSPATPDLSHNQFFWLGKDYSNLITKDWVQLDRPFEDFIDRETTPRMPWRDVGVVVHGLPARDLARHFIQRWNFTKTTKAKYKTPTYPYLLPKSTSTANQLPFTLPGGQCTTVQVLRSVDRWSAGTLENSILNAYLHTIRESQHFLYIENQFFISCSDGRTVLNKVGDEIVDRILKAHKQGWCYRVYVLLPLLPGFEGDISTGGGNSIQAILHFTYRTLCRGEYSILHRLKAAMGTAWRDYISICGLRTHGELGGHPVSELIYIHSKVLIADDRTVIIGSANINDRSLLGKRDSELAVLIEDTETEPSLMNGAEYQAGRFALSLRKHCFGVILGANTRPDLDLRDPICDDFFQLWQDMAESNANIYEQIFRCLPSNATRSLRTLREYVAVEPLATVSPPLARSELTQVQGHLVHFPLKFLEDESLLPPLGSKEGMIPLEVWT
T2 sequence (P32842 whole entry): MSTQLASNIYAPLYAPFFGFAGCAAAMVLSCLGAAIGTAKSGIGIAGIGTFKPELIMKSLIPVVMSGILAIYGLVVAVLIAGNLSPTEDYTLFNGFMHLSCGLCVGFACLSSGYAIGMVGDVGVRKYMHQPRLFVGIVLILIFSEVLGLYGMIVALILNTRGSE
Sphingosine 1-phosphate receptor 5, sequence (Q9H228 whole entry): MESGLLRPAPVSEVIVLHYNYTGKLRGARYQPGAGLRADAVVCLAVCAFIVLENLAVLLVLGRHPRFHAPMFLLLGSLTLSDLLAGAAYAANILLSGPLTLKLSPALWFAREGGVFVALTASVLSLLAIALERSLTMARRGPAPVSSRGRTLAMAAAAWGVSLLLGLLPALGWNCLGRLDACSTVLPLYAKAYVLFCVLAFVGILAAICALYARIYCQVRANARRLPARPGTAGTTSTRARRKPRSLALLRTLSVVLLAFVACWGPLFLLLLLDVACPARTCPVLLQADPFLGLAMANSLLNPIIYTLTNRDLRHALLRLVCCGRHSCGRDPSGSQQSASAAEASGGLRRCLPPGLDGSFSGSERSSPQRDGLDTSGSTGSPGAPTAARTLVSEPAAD
Phospholipase D1, sequence (Q13393 whole entry): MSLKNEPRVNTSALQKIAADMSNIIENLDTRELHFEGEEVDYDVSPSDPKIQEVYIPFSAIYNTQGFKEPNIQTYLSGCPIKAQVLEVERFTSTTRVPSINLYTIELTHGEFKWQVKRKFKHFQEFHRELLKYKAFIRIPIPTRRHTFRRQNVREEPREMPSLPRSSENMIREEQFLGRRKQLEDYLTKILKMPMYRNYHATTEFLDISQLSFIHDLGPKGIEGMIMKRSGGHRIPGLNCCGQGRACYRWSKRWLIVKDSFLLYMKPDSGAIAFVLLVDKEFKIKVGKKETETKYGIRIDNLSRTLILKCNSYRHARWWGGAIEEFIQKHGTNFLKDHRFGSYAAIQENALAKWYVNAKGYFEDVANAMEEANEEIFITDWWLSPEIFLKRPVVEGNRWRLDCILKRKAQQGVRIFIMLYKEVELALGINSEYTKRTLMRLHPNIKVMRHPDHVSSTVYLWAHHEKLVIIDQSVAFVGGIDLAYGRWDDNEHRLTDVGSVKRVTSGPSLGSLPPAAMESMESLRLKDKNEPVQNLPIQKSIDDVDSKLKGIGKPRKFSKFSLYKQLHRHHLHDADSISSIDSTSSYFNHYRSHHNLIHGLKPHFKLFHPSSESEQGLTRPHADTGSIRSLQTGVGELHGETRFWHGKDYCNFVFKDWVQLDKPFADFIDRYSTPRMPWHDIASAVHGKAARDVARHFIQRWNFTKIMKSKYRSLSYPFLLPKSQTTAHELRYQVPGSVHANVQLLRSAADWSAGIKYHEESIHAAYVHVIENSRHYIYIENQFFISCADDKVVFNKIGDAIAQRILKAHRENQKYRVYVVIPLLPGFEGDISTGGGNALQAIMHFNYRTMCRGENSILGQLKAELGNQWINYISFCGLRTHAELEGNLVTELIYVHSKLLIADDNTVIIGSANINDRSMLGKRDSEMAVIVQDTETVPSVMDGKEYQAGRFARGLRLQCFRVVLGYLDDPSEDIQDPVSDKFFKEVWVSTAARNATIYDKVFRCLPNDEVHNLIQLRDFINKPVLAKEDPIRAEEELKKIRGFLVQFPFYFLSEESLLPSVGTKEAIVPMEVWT
Nuclear receptor subfamily 0 group B member 1, sequence (P51843 whole entry): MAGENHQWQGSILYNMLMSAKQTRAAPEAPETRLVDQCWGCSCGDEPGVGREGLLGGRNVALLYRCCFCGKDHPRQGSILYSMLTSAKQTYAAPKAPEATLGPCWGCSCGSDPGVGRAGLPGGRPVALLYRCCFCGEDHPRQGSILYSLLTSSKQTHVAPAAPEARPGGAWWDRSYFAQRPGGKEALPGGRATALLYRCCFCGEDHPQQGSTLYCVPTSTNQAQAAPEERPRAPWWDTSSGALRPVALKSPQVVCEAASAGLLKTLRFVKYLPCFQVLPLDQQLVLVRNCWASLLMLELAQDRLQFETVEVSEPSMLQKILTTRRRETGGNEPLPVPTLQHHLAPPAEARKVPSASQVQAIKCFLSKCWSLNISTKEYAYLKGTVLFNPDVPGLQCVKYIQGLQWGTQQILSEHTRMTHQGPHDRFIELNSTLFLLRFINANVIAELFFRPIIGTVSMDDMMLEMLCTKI
Sphingosine 1-phosphate receptor 1, sequence (P21453 whole entry): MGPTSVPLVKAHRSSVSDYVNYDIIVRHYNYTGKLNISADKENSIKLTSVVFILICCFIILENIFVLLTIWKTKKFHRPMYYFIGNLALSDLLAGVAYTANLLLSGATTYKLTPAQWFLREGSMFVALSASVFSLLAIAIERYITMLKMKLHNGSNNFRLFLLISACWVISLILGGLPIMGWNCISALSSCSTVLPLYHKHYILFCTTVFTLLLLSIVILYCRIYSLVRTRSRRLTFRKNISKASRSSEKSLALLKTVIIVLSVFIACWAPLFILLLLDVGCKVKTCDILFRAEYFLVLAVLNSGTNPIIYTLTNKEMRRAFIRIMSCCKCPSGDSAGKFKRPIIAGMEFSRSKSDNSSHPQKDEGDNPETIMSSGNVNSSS
Sphingosine 1-phosphate receptor 3, sequence (Q99500 whole entry): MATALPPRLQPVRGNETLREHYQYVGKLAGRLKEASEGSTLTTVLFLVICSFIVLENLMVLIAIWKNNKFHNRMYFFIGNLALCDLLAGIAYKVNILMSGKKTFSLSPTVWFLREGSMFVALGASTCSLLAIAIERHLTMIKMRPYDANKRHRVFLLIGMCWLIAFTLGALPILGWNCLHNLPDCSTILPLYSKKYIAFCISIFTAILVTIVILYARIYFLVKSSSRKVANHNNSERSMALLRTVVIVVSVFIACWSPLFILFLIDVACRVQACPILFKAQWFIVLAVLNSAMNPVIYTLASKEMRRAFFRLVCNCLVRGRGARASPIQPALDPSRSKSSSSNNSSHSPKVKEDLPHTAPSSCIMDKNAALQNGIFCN

For the molecule `C[C@@H](CN1CCC2(CC1)C(=O)NCN2c1ccccc1)NC(=O)c1ccc(F)c(F)c1`, the IC50 is 2.15 µM (active) in [1], 0.21 µM (active) in [2] and 2.22 µM (active) in [3].
Regarding `COc1ccc(S(=O)(=O)N(C)C[C@@H]2Oc3c(NC(=O)Nc4cccc5ccccc45)cccc3C(=O)N([C@@H](C)CO)C[C@H]2C)c(OC)c1`, the AC50 in test [4] is 45.5 µM (active); in test [5], 74.1 µM (active); in test [6] it was 27.7 µM (active); in [7], > 260 µM (inactive).
Turning to `CC/N=C1/SC(=Cc2cc(C)n(Cc3ccccc3OC)c2C)C(=O)N1CC`, the values for the EC50 in test [8], in test [9] and in [10] were 0.18 µM (active), 0.106 µM (active) and 13.7 µM (inactive), respectively.
For the molecule `O=C(Nc1ccccc1N1CCOCC1)c1ccc([N+](=O)[O-])o1`, the AC50 in test [11] is 3.63 µM (active); in [14], 11.9 µM (active). The EC50 in test [12] was 4.18 µM (active); in test [13], 25.3 µM (active).
On to `Nc1ccc(C(=O)Nc2ccccc2N)cc1` [DINALINE], for which the IC50 is > 6.67 µM (inactive) in test [15]; > 20 µM (inactive) in test [16]; > 20 µM (inactive) in test [17]; 0.255 µM (active) in test [18]; > 20 µM (inactive) in test [20]; > 20 µM (inactive) in test [21]. In addition, the IC50 in test [23] was 12.9 µM (inactive); in [24], > 20 µM (inactive); in test [26], 19.8 µM (inactive); in test [27], > 20 µM (inactive). Moreover, the EC50 in test [19] was > 350 µM (not active); in test [22] it was 18.7 µM (active); in test [25] it was > 67.6 µM (inactive).
